Assay results reported in patent US6653089B2, “Differential treatment of selected parts of a single cell with different fluid components” (President and Fellows of Harvard College, priority 2000, dated 2003).

Assays:
[1] = test system: BCE cells (actin filaments); assay: Partial treatment of single BCE cells with a membrane-permeable actin disrupting drug in a two-component laminar flow stream; type: cell-based, Bovine; settings: for actin cytoskeleton after treatment (phalloidin Alexa 594 stain): about 10 min
Procedure: (§1) Bovine adrenal capillary endothelial (BCE) cells were cultured and harvested as described in D. E. Ingber & J. Folkman, J. Cell Biol., Vol. 109, pp. 317-330, 1989, incorporated herein by reference. In brief, cells were cultured under 10% CO2 on Petri dishes (Falcon) coated with gelatin in DMEM (GIBCO) containing 10% calf serum (CS), 2 mM glutamine, 100 μg/ml streptomycin, 100 μg/ml penicillin, and 1 ng/ml basic fibroblast growth factor (bFGF). Cells were dissociated from culture plates with trypsin/EDTA and washed in DMEM containing 1% wt/vol BSA (BSA/DMEM). These cells were suspended in chemically defined medium (10 μg/ml high density lipoprotein/5 μg/ml transferrin/5 ng/ml bFGF in BSA/DMEM) as described in D. E. Ingber, Proc. Natl. Acad. Sci. USA, Vol. 87, pp. 3579-3583 (1990), incorporated herein by reference, introduced into capillary networks (pretreated with 50 μg/ml fibronectin for 1 hr) from the inlet wells, and incubated in 10% CO2 at 37° C. for 4-6 hr to permit attachment and spreading upon the glass cover slip forming the bottom of the microchannel network. After the above incubation to allow for binding and attachment, non-adherent cells were removed by washing each of the flow channels with media (1% wt/vol. BSA/DMEM) for about 3 min. at a maximum bulk flow velocity of about 0.6 cm/s (Re<1).
Device fabrication and cell culture and attachment of BCE cells was performed as described above in Example 1. Creation and maintenance of flow in the channels and selection and observation of a BCE cell positioned straddling the interface of two components of the flow stream established in the main flow channel was performed in a similar fashion as described previously in Example 1.
In the present example, prior to selective treatment of a portion of a single BCE cell with a membrane-permeable actin disrupting drug, the BCE cells attached to the microfluidic network were uniformly exposed to media containing Mitotracker Green™ FM mitochondrial stain, as described in Example 2, in order to uniformly stain the mitochondria of each of the BCE cells in the microfluidic channels. Subsequent to mitochondrial staining, partial cell treatment with the actin disrupting drug was accomplished by filling right-most well 316 (see FIG. 3A) of the microfluidic channel network with media containing latrunculin A (1 μM in DMEM/10% CS). Similar media, except not including the latrunculin A, was added to inlet wells 312 and 314, and flow was maintained during the experiment as described previously in Example 1. […]

BCE cells = assay: Intracellular gradient formation of a membrane permeable nucleic acid binding dye in a single BCE cell; type: cell-based, Bovine; settings: 60 μM Syto 9 in DMEM/10% CS over one portion of the cell, dye-free media over the other
Procedure: as §1, with “After the above incubation to allow for binding and attachment, non-adherent cells were removed by washing each of the flow channels with media (1% wt/vol. BSA/DMEM) for about 3 min. at a maximum bulk flow velocity of about 0.6 cm/s (Re<1).” left out
The flowing streams and attached BCEs were visualized utilizing a fluorescence inverted microscope, as illustrated in FIG. 3B. […]

**Q.** Which “displacement of mitochondria and nucleus on local actin disruption” value ([1]; center cell, latrunculin A supplied to right-hand portion only, peripheral cell shape relatively unchanged) does the source give for `C/C1=C/C(=O)O[C@@H]2C[C@@H](CC[C@H](C)/C=C\C=C\CC1)O[C@@](O)([C@@H]1CSC(=O)N1)C2` [latrunculin A] here?
**A.** caused the mitochondria and nucleus to shift towards the left

**Q.** And the “actin cytoskeleton after treatment (phalloidin Alexa 594 stain)” value ([1]; center cell, only right-hand part exposed to latrunculin A-containing media, 1 μM)?
**A.** greatest degree of actin disruption evident in its treated, right side portion

**Q.** What about the “positions of the mitochondria (Mitotracker Green FM stained)” value ([1]; center cell, right-hand part exposed to 1 μM latrunculin A for 10 min) of the same compound?
**A.** have shifted towards the left-hand (untreated) part of the cell

**Q.** And the “actin cytoskeleton after treatment (phalloidin Alexa 594 stain)” value ([1]; rightmost cell fully exposed to latrunculin A-containing media, 1 μM in DMEM/10% CS)?
**A.** a substantial portion of the actin cytoskeleton appears, in the rightmost cell, to be depolymerized

**Q.** With Syto 9 as the compound, how does the “time until intracellular diffusion reached approximately its steady state value” (BCE cells) read?
**A.** about 10 minutes
